From patent publication US20090055945A1, “Method for Producing Nuclear-Transplanted Egg” (priority 2005, published 2009)

Experiments:
Type in all cases: cell-based, mouse
[1] = test system: nuclear transfer oocytes (nuclei from cumulus cells in enucleated oocytes); test: Expanded blastocyst formation of nuclear transfer oocytes (cumulus cell nuclei)
Description: Production of cloned mice including production of nuclear transfer embryos was carried out according to the method as described in Non-patent Document 5. Briefly, pregnant mare serum gonadotrophin (PMSG) was first administered to 8-weeks-old female B6D2F1 (C57BL/6 XDBA/2) mice (Japan SLC) for superovulation treatment. Human choriogonadotropin (hCG) was administered after 48 hours. Oocytes were collected after 16 hours. Nuclei were removed from the collected unfertilized oocytes in the presence of 5 μg/ml of cytochalasin B using a micromanipulator (enucleation).
Next, cell membranes of cumulus cells from a B6D2F1 mouse as donor somatic cells suspended in a 1.2% polyvinylpyrrolidone (PVP) solution were destroyed using an injection pipette, and the nuclei were injected into the enucleated oocytes using a micromanipulator (nuclear transfer). A piezo drive apparatus (Prime Tech) was used to generate piezo-pulses for penetration of zona pellucida or cell membranes which is required for injection of nuclei.
The thus obtained nuclear transfer oocytes were cultured in a CO2 incubator at 37° C. for 30 minutes to 1 hour. The oocytes were then transferred to an oocyte activation solution (Ca^2+-free CZB medium supplemented with 5 mM strontium chloride (SrCl2) and 5 μg/ml of cytochalasin B (Non-patent Document 10)) containing 0.5, 5, 50 or 500 nM trichostatin A (hereinafter referred to as TSA) to artificially activate the oocytes and initiate the development. Activation of oocytes was confirmed 6 hours after the initiation of activation using pronuclei formation as an index. Activated nuclear transfer oocytes were transferred to KSOM medium (Specialty Media) containing TSA at the same concentration, and cultured for further 14 hours (for 20 hours after the initiation of activation) in the medium. For a control, dimethyl sulfoxide (DMSO), which was used for dissolving TSA, was used in place of TSA to produce the same concentration.
Then, the nuclear transfer embryos at the 2-cell stage were cultured in KSOM medium without TSA until 96 hours after the initiation of activation, and development into expanded blastocysts was observed. The development into expanded blastocyst was confirmed by culturing for 96 hours after the initiation of activation and then observing under a microscope one in which the volume of embryo was increased to result in expansion of the blastocyst and thinning of zona pellucida among blastocysts having blastocoels. 80 or more embryos were examined in each of the experimental groups of the respective concentrations.
The ratio of the developed blastocysts to the number of nuclear transfer oocytes used (blastocyst formation rate (%)) was determined. The ratio of the developed expanded blastocysts to the number of oocytes that initiated cleavage (i.e., developed into the 2-cell stage) among the reconstructed nuclear transfer oocytes (blastocyst formation rate (%)) was determined.
Nuclear transfer oocytes were produced by injecting nuclei from cumulus cells into enucleated oocytes according to the method as described in Example 1, cultured in KSOM medium containing TSA at a concentration of 5 nM for various periods of time (for 0, 24, 48 or 72 hour(s) from the initiation of activation), and then cultured in KSOM medium without TSA until 96 hours after the initiation of activation. Then, development into expanded blastocysts was observed and the blastocyst formation rate was determined. […]

[2] = test system: oocytes injected with nuclear domains of round spermatids (ROSI); test: Paternal genome DNA methylation, spermatid injection (ROSI); settings: 500 nM TSA
Description: (§1) The oocytes injected with the nuclear domains of round spermatids obtained by ROSI were cultured for 20 hours in the presence of 20 ng/ml of demecolcine in a medium containing 10 μM 5-azacytidine (5-aza) or 500 nM TSA as an anti-methylation agent. Similarly, injection of mature sperms was carried out (ICSI (intracytoplasmic sperm injection)). Specifically, heads of sperms were separated from the tails by applying pulses to the head-tail junctions by means of a piezo-driven pipette (PrimeTech), and injected into oocytes. The oocytes were not subjected to activation in this case.
The cultured oocytes injected with nuclei were fixed in PBS containing 4% paraformaldehyde at 4° C. overnight, washed in PBS containing 0.1% polyvinyl alcohol (PVA), and blocked in PBS containing 3% bovine serum albumin (BSA) and 0.2% Triton X-100 at 4° C. overnight. Subsequent steps were carried out at room temperature. The fixed oocytes injected with nuclei were permeabilized by treating with 0.2% Triton X-100 in PBS at room temperature. The oocytes were then treated with 2N HCl at room temperature for 50 minutes, neutralized in 100 mM Tris-HCl buffer (pH 8.0) (Non-patent Document 15), and extensively washed with PBS containing 1% BSA.
Next, incubation. with an anti-5-methylcytidine antibody (Eurogentec) in PBS containing 0.1% PVA was carried out for 2 to 3 hours. After extensively being washed, oocytes were stained with Alexa Flour-488 secondary antibody (Molecular Probes), stained with 5 μg/ml 4′,6′-diamidino-2-phenylindole (DAPI) for 30 minutes, and mounted using Vectashield (Vector Laboratory). The specimens were observed using Olympus BX51 microscope (Olympus). All images were captured with DP70 Olympus digital camera using Olympus Analysis software to apply colors to DAPI-stained DNA and merged images.
(§2) For quantitative analysis of pronuclear DNA methylation levels, fluorescence images were subjected to densitometric analysis using the program Image-J from the National Institute of Health (http://rsb.info.nih.gov/ij/). For each pronucleus, the relative intensity of methylation of the paternal genome was calculated as a percentage of the fluorescence intensity of the maternal genome. In Table 3, data with (b) and without (a) anti-methylation agent were statistically analyzed by Scheffe tests for multiple mean comparisons using the statistical program SPSS version 12.0 (SPSS Inc.). All percentile data were subjected to arcsine transformation prior to the statistical analysis.

[3] = test system: oocytes injected with mature sperm (ICSI); test: Paternal genome DNA methylation, mature sperm injection (ICSI); settings: 500 nM TSA, 20 hours
Description: as §1, with “case. […]” for “case.”
as §2, with “All percentile data were subjected to arcsine transformation prior to the statistical analysis.” left out

[4] = test system: oocytes into which nuclei from ES cells (E14) were transferred; test: Expanded blastocyst formation, ES cells as donor cells; settings: ES cell donor nuclei; 50 nM TSA for 20 hours; FIG. 8
Description: A procedure similar to that described in Example 1 was carried out using fibroblasts or embryonic stem cells (ES cells) as donor cells in place of cumulus cells. Fibroblasts were obtained by culturing a fragment of mouse tail (Non-patent Document 11). E14 cells were used as ES cells (Non-patent Document 12).
Oocytes into which nuclei from the donor cells were transferred were treated with TSA for 20 hours, and cultured in KSOM medium without TSA until 96 hours after the initiation of activation. Then, development into expanded blastocysts was observed and the blastocyst formation rate was determined. 30 or more embryos were examined in each of the experimental groups of the respective cells.

SMILES: CC(/C=C/C(=O)NO)=C\[C@@H](C)C(=O)c1ccc(N(C)C)cc1 [TSA, trichostatin A]
- blastocyst development rate compared with the case without TSA ([1]; TSA 5 nM for 24 or 48 hours from initiation of activation, FIG. 4): increased
- blastocyst development rate among treatment periods ([1]; TSA 5 nM for 10 hours after initiation of activation, FIG. 5): highest
- increase in blastocyst development rate ([1]; TSA 5 nM for 24 hours from initiation of activation): about 4 fold
- development rate compared with the case without TSA ([1]; TSA 5 nM for 72 hours from initiation of activation): reduced
- blastocyst formation rate compared with the case without TSA ([1]; TSA 5, 50 or 500 nM, 20 hours after initiation of activation, observed at 96 hours, FIG. 2): increased
- majority of the methylation of the paternal genome, response to TSA treatment [2]: sensitive
- methylation of the maternal genome, response to TSA treatment [2]: resistant
- methylation of DNA in the pericentromeric region, response to TSA ([2]; region with high methylation of histone H3 Lys9): resistant
- Ratio of methylation level of paternal genome to maternal genome (%) ([2]; Spermatid (ROSI), 20 hours): 42.5^b %
- Ratio of methylation level of paternal genome to maternal genome (%) [3]: 8.2^b %
- blastocyst development rate compared with the case without TSA [4]: higher
